According to PMC8560763, “Roles of metal ions in the selective inhibition of oncogenic variants of isocitrate dehydrogenase 1” (Communications Biology, 2021):
Several values for one entry are separate records, joined by “and”; a condition that tells them apart may be missing. Identical values can stand only once.

Experiments:
wt IDH1 [1] = target: T1, wt IDH1 (Homo sapiens, UniProt O75874); assay: Isothermal titration calorimetry (ITC), binding to wt IDH1; conditions: alone, EDTA-treated wt IDH1, 50 mM Tris-HCl, pH 7.5
T1 construct: made in house; host or cells: Escherichia coli BL21(DE3) pLyS
Method: ITC experiments were conducted using a Malvern MicroCal PEAQ-ITC Automated machine. In general, the protein was prepared in 50 mM Tris-HCl ± 5 mM metal chloride salts at pH 7.5; substrates were dissolved in the same buffer. Four hundred microlitres of cell solution and 200 µL of titrant were transferred to an ITC plate. […] The injection setup consisted of 19 injections that have one initial injection of 0.4 µL and 18 injections of 2.0 µL each with 150 s between the injections. The thermodynamic parameters were obtained using the MicroCal PEAQ-ITC analysis software.

wt IDH1 [2] = target: T1, wt IDH1; assay: Differential scanning fluorimetry (DSF) thermal shift, wt IDH1; type: binding; conditions: for Δ in Tm: Fig. 2e; for thermal stabilisation: wt IDH1, Mg^2+ alone, 0.032–20 mM
Method: Thermal shift experiments were carried out using Sypro Orange dye and a CFX96 Touch^TM Real-Time PCR Detection System (Bio-Rad)[69]. […] The standard assay buffer contains 50 mM Tris-HCl at pH 7.5. Various concentrations of substrates were mixed with IDH1 for thermal stabilisation studies. […] Bio-Rad CFX Manager was used to determine the melting temperature, Tm.

wt IDH1 [3] = target: T1, wt IDH1; assay: Absorbance assay: effect of metal ions on catalysis and inhibition of wt IDH1; type: biochemical; conditions: wt IDH1, metal ions 10 mM
Method: Inhibition assays of wt or R132H IDH1 with metal ions were conducted with a 12 min pre-incubation of metal ions (25 µL, final concentration 10 mM) and enzyme (25 µL) before the addition of substrate (25 µL) and cofactor (25 µL). […] The difference in absorbance, ΔA340, in the linear range of the reaction profile was converted to % residual activity with the DMSO control being the 100% residual activity reference.

wt IDH1 [4] = target: T1, wt IDH1; assay: Absorbance assay (NADPH, 340 nm): kinetics of oxidative reaction (isocitrate to 2OG) by wt IDH1; type: biochemical
Method: (§1) All experiments were performed in (at least) triplicate.
(§2) KM values were determined by varying concentrations of the substrate/cofactor under investigation while maintaining the concentrations of other components using standard conditions. […] Graphs were fitted using GraphPad Prism to obtain kinetic parameters.

wt IDH1 [5] = target: T1, wt IDH1; assay: Absorbance assay: kinetics of reductive reaction (2OG to isocitrate) by wt IDH1; type: biochemical; conditions: wt IDH1, reductive reaction with Mg^2+
Method: as §1, §2

[6] = ITC, metal ion binding to DL-isocitrate; conditions: read-out: KD for metal ion binding to DL-isocitrate; metal ion (10 mM), DL-isocitrate (500 µM), 50 mM Tris-HCl, pH 7.5
Method: ITC experiments were conducted using a Malvern MicroCal PEAQ-ITC Automated machine. In general, the protein was prepared in 50 mM Tris-HCl ± 5 mM metal chloride salts at pH 7.5; substrates were dissolved in the same buffer. Four hundred microlitres of cell solution and 200 µL of titrant were transferred to an ITC plate. Titrations were conducted at 25 °C with an initial delay of 60 s and a stir speed of 750 r.p.m. The injection setup consisted of 19 injections that have one initial injection of 0.4 µL and 18 injections of 2.0 µL each with 150 s between the injections. The thermodynamic parameters were obtained using the MicroCal PEAQ-ITC analysis software.

[7] = wt IDH1, oxidative reaction with Mg^2+ (10 mM MgCl2)

T1 sequence (O75874 2-414): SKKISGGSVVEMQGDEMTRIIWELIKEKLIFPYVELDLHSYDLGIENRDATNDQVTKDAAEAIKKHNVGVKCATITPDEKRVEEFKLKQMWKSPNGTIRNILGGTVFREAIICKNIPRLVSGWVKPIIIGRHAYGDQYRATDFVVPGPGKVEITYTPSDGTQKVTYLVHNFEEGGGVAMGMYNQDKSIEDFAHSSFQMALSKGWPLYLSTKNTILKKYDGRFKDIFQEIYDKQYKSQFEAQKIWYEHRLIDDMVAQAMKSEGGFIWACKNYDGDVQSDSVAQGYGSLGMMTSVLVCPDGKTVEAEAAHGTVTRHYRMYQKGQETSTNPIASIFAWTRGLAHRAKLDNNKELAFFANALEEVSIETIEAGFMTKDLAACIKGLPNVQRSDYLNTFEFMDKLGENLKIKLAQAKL

[Cl-].[Cl-].[Mg+2] [MgCl2]
Kd (wt IDH1 [1]): > 8 mM
Δ in Tm (wt IDH1 [2]; wt IDH1, 0.8 mM MgCl2, replicates): -0.3 °C and -0.1 °C (2×)
Δ in Tm (wt IDH1 [2]; wt IDH1, 4 mM MgCl2, replicates): -0.1 °C
Δ in Tm (wt IDH1 [2]; wt IDH1, 20 mM MgCl2, replicates): -0.5 °C and -0.1 °C (2×)
thermal stabilisation (wt IDH1 [2]): no thermal shift
thermal stabilisation (wt IDH1 [2]; listed as Mg^2+): does not stabilise
thermal stabilisation (shift in Tm) (wt IDH1 [2]; wt IDH1, divalent metal ions (5 mM), 50 mM Tris-HCl, pH 7.5): less stabilising effect
effect of metal ion on catalysis (wt IDH1 [3]): promoted
Velocity (wt IDH1 [4]; Fig. S2c, [MgCl2] 1.95312 μM): 0.01456 µM/s and 0.01492 µM/s and 0.01895 µM/s
Velocity (wt IDH1 [4]; Fig. S2c, [MgCl2] 3.90625 μM): 0.02158 µM/s and 0.02123 µM/s and 0.02246 µM/s
Velocity (wt IDH1 [4]; Fig. S2c, [MgCl2] 7.8125 μM): 0.03106 µM/s and 0.03492 µM/s and 0.04106 µM/s
Velocity (wt IDH1 [4]; Fig. S2c, [MgCl2] 15.625 μM): 0.05387 µM/s and 0.06159 µM/s and 0.06633 µM/s
Velocity (wt IDH1 [4]; Fig. S2c, [MgCl2] 31.25 μM): 0.08809 µM/s and 0.1025 µM/s and 0.1206 µM/s
Velocity (wt IDH1 [4]; Fig. S2c, [MgCl2] 62.5 μM): 0.1304 µM/s and 0.136 µM/s and 0.1651 µM/s
Velocity (wt IDH1 [4]; Fig. S2c, [MgCl2] 250 μM): 0.1516 µM/s and 0.1788 µM/s and 0.1943 µM/s
Velocity (wt IDH1 [4]; Fig. S2c, [MgCl2] 500 μM): 0.1764 µM/s and 0.1771 µM/s and 0.2318 µM/s
Velocity (wt IDH1 [4]; Fig. S2c, [MgCl2] 1000 μM): 0.1957 µM/s and 0.2076 µM/s and 0.2279 µM/s
Velocity (wt IDH1 [4]; Fig. S2c, [MgCl2] 2000 μM): 0.2057 µM/s and 0.2199 µM/s and 0.2304 µM/s
Velocity (wt IDH1 [4]; Fig. S2d, [MgCl2] 15.625 μM): 0.01053 µM/s and 0.01316 µM/s
Velocity (wt IDH1 [4]; Fig. S2d, [MgCl2] 31.25 μM): 0.02369 µM/s and 0.03159 µM/s and 0.03685 µM/s
Velocity (wt IDH1 [4]; Fig. S2d, [MgCl2] 62.5 μM): 0.03422 µM/s and 0.03685 µM/s and 0.04738 µM/s
Velocity (wt IDH1 [4]; Fig. S2d, [MgCl2] 250 μM): 0.0737 µM/s and 0.08423 µM/s and 0.07633 µM/s
Velocity (wt IDH1 [4]; Fig. S2d, [MgCl2] 500 μM): 0.09476 µM/s and 0.07896 µM/s
Velocity (wt IDH1 [4]; Fig. S2d, [MgCl2] 1000 μM): 0.1027 µM/s and 0.08949 µM/s and 0.09476 µM/s
Velocity (wt IDH1 [4]; Fig. S2d, [MgCl2] 2000 μM): 0.08949 µM/s and 0.1079 µM/s and 0.09212 µM/s
kcat (wt IDH1 [4]; wt IDH1, oxidative reaction with Mg^2+): 50 ± 4 s⁻¹
Km (wt IDH1 [4]; [7]): 36 ± 4 µM
Vmax (wt IDH1 [4]; [7]): 214 ± 5 nM/s
Km (wt IDH1 [4]; wt IDH1 isocitrate oxidation, in the presence of 150 mM NaCl): 94 µM
kcat (wt IDH1 [5]): 2.1 ± 0.1 s⁻¹
Kd [6]: 1.5 mM
